{
  "source": "patent US20020082273A1",
  "about": "“Agents for use in the treatment of alzheimer's disease” (priority 1998, published 2002)",
  "key": {"[1]": {"settings": "in vivo; cited from earlier work"}, "[2]": {"molecular_target": "T1, Aβ1-42 (Homo sapiens, UniProt P05067)", "T1 sequence (P05067 672-713 limits assumed)": "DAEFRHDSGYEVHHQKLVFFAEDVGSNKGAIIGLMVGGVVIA", "assay": "Effect of chelators on metal reduction by Aβ1-42", "type": "biochemical", "settings": "chelator 200 μM, Fe^3+ 10 μM, ambient oxygenation"}, "[3]": {"molecular_target": "T1, Aβ1-42", "assay": "Effect of metal chelators on H2O2 production from Aβ1-42", "type": "biochemical", "settings": "1 μM Fe^3+; chelator 200 μM"}, "[4]": {"test_system": "Alzheimer's disease", "settings": "clinical administration; cited from earlier work"}, "[5]": {"assay": "Cu^2+-induced SDS-resistant polymerization of Aβ peptides, western blot image analysis", "type": "biochemical, human", "experimental": "Following incubation (37° C.), aliquots of each reaction (2 ng peptide) were collected at 0 d, 1 d, 3 d and 5 d and western blotted using anti-Aβ monoclonal antibody 8E10 (FIG. 9). Migration of the molecular size markers are indicated (kDa). […] It should be noted that other means of visualizing and/or determining the presence or absence of polymerization other than western blot analysis may be used. Such other means include but are not limited to density sedimentation by centrifugation of the samples.\nThe generation of SDS-resistant Aβ polymers by metal ions was tested by incubating Cu^2+ (30 μM) or Zn^2+ (30 μM) at pH 6.6, 7.4 and 9.0 with Aβ1-40.\n(0-30 μM) at pH 7.4 and 6.6 and the samples analyzed by Western blot and the signal quantitated using the Fluoro-S Image Analysis System (Bio-Rad, Hercules, Calif.) as previously described."}, "[6]": {"assay": "Metal reduction assay, Fe^3+ to Fe^2+", "type": "biochemical", "settings": "10 μM Fe^3+, PBS pH 7.4, 1 hr 37° C.", "experimental": "(§1) The metal reduction assay was performed using a 96-well microtiter plate (Costar) based upon a modification of established protocols (Landers, J. W., et al., Amer. Clin. Path. 29:590 (1958); Landers, J. W., et al., Clinica Chimica Acta 3:329 (1958)). Polypeptides (10 μM) or Vitamin C (100 μM), metal ions (10 μM, Fe(NO3)3 or Cu(NO3)2), and reduced metal ion indicators, bathophenanthrolinedisulfonic acid (BP, for Fe^2+, Sigma, 200 μM) or bathocuproinedisulfonic acid (BC, for Cu^+, Sigma, 200 μM), were coincubated in phosphate buffered saline (PBS), pH 7.4, for 1 hr at 37° C. The metal ion solutions were prepared by direct dilution in the buffer from their aqueous stocks purchased from National Institute of Standards and Technology (NIST). Absorbances were then measured at 536 mn (Fe^2+-BP complex) and 483 nm (Cu^+-BC complex), respectively, using a 96-well plate reader (SPECTRAmax 250, Molecular Devices, CA). In control samples, both metal ion and indicator were present to determine the background buffer signal. As a further control, both metal ion and peptide were present in the absence of indicator to estimate the contribution of light scattering due to turbidity to the absorbance reading at these wavelengths. The net absorbances (ΔA) at 536 nm or 483 nm were obtained by deducting the absorbances from these controls from the absorbances generated by the peptide and metal in the presence of the respective indicator.\nThe concentrations of reduced metal ions (Fe^2+ or Cu^+) were quantified based on the formula: Fe^2+ or Cu^+ (˜M)=A*10^6/(L*M), where L is the measured equivalent vertical pathlength for a well of 300 μL volume as described in the instrument's specifications manual (0.856 cm for Fe^2+; 1.049 cm for Cu^+); M is the known molecular absorbance (M^−1 cm^−1) which is 7124 (for Fe^2+-BP complex) or 2762 (for Cu^+-BC complex)."}, "[7]": {"assay": "H2O2 assay, production by Aβ peptides", "type": "biochemical", "settings": "1 μM Fe^3+, ambient O2, PBS pH 7.4, 1 hour 37° C.", "procedure": "Polypeptides (10 μM) or Vitamin C (10 μM), Fe^3+ or Cu^2+ (1 μM) and a H2O2 trapping agent-Tris(2-Carboxyethyl)Phosphine Hydrochloride (TCEP, Pierce, 50 μM)-were co-incubated in PBS buffer (300 μL), pH 7.4, for 1 hour at 37° C. Under identical conditions, catalase (Sigma, 100 U/mL) was substituted for the polypeptides, to serve as a control signal representing 0 μM H2O2. Following incubation, the unreacted TCEP was detected by 5,5-Dithio-bis(2-Nitrobenzoic acid) (DTNB, Sigma, 50 KLM) which generates 2 moles of the coloured product."}, "[8]": {"assay": "TBARS assay of OH.", "type": "biochemical", "settings": "10 μM peptide, 1 μM Fe^3+ or Cu^2+", "experimental": "All data points are means ±SD, n=3.\nThe Thiobarbituric Acid-Reactive Substance (TBARS) assay for incubation mixtures with Fe^3+ or Cu^2+ was performed in a 96-well microtiter format modified from established protocols (Gutteridge et al. Biochim. Biophys. Acta 759: 38-41 (1983)). Aβ peptide species (10 μM) or Vitamin C (100 μM), were incubated with Fe^3+ or Cu^2+ (1 μM) and deoxyribose (7.5 mM, Sigma) in PBS, pH 7.4. Following incubation (37° C., 1 hour), glacial (17 M) acetic acid and 2-thiobarburic acid (1%, w/v in 0.05 M NaOH, Sigma) were added and heated (100° C., 10 min). The final mixtures were placed on ice for 1-3 minutes before absorbances at 532 nm were measured. The net absorbance change for each sample were obtained by deducting the absorbance from a control sample consisting of identical chemical components except for the Vitamin C or Aβ peptides."}, "[9]": {"assay": "Metal reduction assay, Cu^2+ to Cu^+", "type": "biochemical", "settings": "10 μM Cu^2+, PBS pH 7.4, 1 hr 37° C.", "experimental": "Aβ (10 μM in PBS, pH 7.4 or 6.8, as shown) was incubated for 30 minutes (37° C.) in the presence of Cu^2+10 μM ±Zn^2+ 10 μM). […] levels (n=3, ±SD) were assayed against a standard curve.\nas §1, with “Polypeptides” for “The metal reduction assay was performed using a 96-well microtiter plate (Costar) based upon a modification of established protocols (Landers, J. W., et al., Amer. Clin. Path. 29:590 (1958); Landers, J. W., et al., Clinica Chimica Acta 3:329 (1958)). Polypeptides”, “Absorbances were then measured at 536 mn (Fe^2+-BP complex) and 483 nm (Cu^+-BC complex), respectively, using a 96-well plate reader (SPECTRAmax 250, Molecular Devices, CA).” left out"}},
  "data": [
    {"compound": "CC(=O)N(O)CCCCCNC(=O)CCC(=O)N(O)CCCCCNC(=O)CCC(=O)N(O)CCCCCN", "note": "[DFO]", "values": [
      {"measurement": "brain / blood-brain barrier penetration", "setting": "[1]", "value": "does not easily penetrate the blood-brain barrier"},
      {"measurement": "effect on production of Fe^2+ by Aβ1-42", "setting": "[2]", "value": "nearly halved"},
      {"measurement": "effect on H2O2 formation by Aβ1-42", "setting": "[3]", "value": "had no effect on H2O2 formation"},
      {"measurement": "effect on progression of AD", "setting": "[4]", "value": "effective in preventing the progression of AD"}
    ]},
    {"compound": "Aβ1-42: synthetic human Aβ peptide, residues 1-42", "values": [
      {"measurement": "SDS-resistant polymers: Monomer", "setting": "[5]; pH 6.6, [Cu^2+] 0", "value": 61.0},
      {"measurement": "SDS-resistant polymers: Pentamer", "setting": "[5]; pH 6.6, [Cu^2+] 0", "value": 3.8},
      {"measurement": "SDS-resistant polymers: Tetramer", "setting": "[5]; pH 6.6, [Cu^2+] 0", "value": 8.6},
      {"measurement": "SDS-resistant polymers: Trimer", "setting": "[5]; pH 6.6, [Cu^2+] 0", "value": 27.3},
      {"measurement": "SDS-resistant polymers: Monomer", "setting": "[5]; pH 6.6, [Cu^2+] 0.5", "value": 52.1},
      {"measurement": "SDS-resistant polymers: Tetramer", "setting": "[5]; pH 6.6, [Cu^2+] 0.5", "value": 12.0},
      {"measurement": "SDS-resistant polymers: Trimer", "setting": "[5]; pH 6.6, [Cu^2+] 0.5", "value": 33.8},
      {"measurement": "SDS-resistant polymers: Monomer", "setting": "[5]; pH 6.6, [Cu^2+] 5", "value": 59.6},
      {"measurement": "SDS-resistant polymers: Tetramer", "setting": "[5]; pH 6.6, [Cu^2+] 5", "value": 7.1},
      {"measurement": "SDS-resistant polymers: Monomer", "setting": "[5]; pH 6.6, [Cu^2+] 10", "value": 52.3},
      {"measurement": "SDS-resistant polymers: Pentamer", "setting": "[5]; pH 6.6, [Cu^2+] 10", "value": 2.2},
      {"measurement": "SDS-resistant polymers: Tetramer", "setting": "[5]; pH 6.6, [Cu^2+] 10", "value": 13.6},
      {"measurement": "SDS-resistant polymers: Monomer", "setting": "[5]; pH 7.4, [Cu^2+] 0", "value": 76.61},
      {"measurement": "SDS-resistant polymers: Pentamer", "setting": "[5]; pH 7.4, [Cu^2+] 0", "value": 1.9},
      {"measurement": "SDS-resistant polymers: Tetramer", "setting": "[5]; pH 7.4, [Cu^2+] 0", "value": 5.5},
      {"measurement": "SDS-resistant polymers: Trimer", "setting": "[5]; pH 7.4, [Cu^2+] 0", "value": 16.0},
      {"measurement": "SDS-resistant polymers: Monomer", "setting": "[5]; pH 7.4, [Cu^2+] 0.5", "value": 70.7},
      {"measurement": "SDS-resistant polymers: Pentamer", "setting": "[5]; pH 7.4, [Cu^2+] 0.5", "value": 2.5},
      {"measurement": "SDS-resistant polymers: Tetramer", "setting": "[5]; pH 7.4, [Cu^2+] 0.5", "value": 6.2},
      {"measurement": "SDS-resistant polymers: Trimer", "setting": "[5]; pH 7.4, [Cu^2+] 0.5", "value": 20.5},
      {"measurement": "SDS-resistant polymers: Monomer", "setting": "[5]; pH 7.4, [Cu^2+] 1", "value": 64.9},
      {"measurement": "SDS-resistant polymers: Pentamer", "setting": "[5]; pH 7.4, [Cu^2+] 1", "value": 4.0},
      {"measurement": "SDS-resistant polymers: Tetramer", "setting": "[5]; pH 7.4, [Cu^2+] 1", "value": 7.4},
      {"measurement": "SDS-resistant polymers: Trimer", "setting": "[5]; pH 7.4, [Cu^2+] 1", "value": 23.6},
      {"measurement": "SDS-resistant polymers: Monomer", "setting": "[5]; pH 7.4, [Cu^2+] 5", "value": 56.1},
      {"measurement": "SDS-resistant polymers: Pentamer", "setting": "[5]; pH 7.4, [Cu^2+] 5", "value": 4.1},
      {"measurement": "SDS-resistant polymers: Tetramer", "setting": "[5]; pH 7.4, [Cu^2+] 5", "value": 8.7},
      {"measurement": "SDS-resistant polymers: Monomer", "setting": "[5]; pH 7.4, [Cu^2+] 10", "value": 55.1},
      {"measurement": "SDS-resistant polymers: Pentamer", "setting": "[5]; pH 7.4, [Cu^2+] 10", "value": 4.3},
      {"measurement": "SDS-resistant polymers: Tetramer", "setting": "[5]; pH 7.4, [Cu^2+] 10", "value": 10.3},
      {"measurement": "SDS-resistant polymers: Monomer", "setting": "[5]; pH 7.4, [Cu^2+] 30", "value": 57.1},
      {"measurement": "SDS-resistant polymers: Pentamer", "setting": "[5]; pH 7.4, [Cu^2+] 30", "value": 4.2},
      {"measurement": "SDS-resistant polymers: Tetramer", "setting": "[5]; pH 7.4, [Cu^2+] 30", "value": 8.3},
      {"measurement": "reduction of available Fe^3+", "setting": "[6]", "value": 50, "unit": "%"},
      {"measurement": "H2O2 generated", "setting": "[7]", "value": 10, "unit": "µM"}
    ]},
    {"compound": "rat Aβ1-40: rat Aβ with substitutions R5→G, Y10→F, H13→R compared to human Aβ (DAEFGHDSGFEVRHQKLVFFAEDVGSNKGAIIGLMVGGVV; Amyloid-beta protein 40; UniProt P08592 672-711, looked up)", "values": [
      {"measurement": "OH. generation (TBARS)", "setting": "[8]", "value": "did not generate OH"},
      {"measurement": "reduction of available Fe^3+", "setting": "[6]", "value": "did not significantly facilitate the reduction of Fe^3+"},
      {"measurement": "reduction of available Cu^2+", "setting": "[9]", "value": "reduced no Cu^2+"}
    ]},
    {"compound": "vitamin E", "values": [
      {"measurement": "effect on progression of AD", "setting": "[4]", "value": "delay the progression of clinical AD"}
    ]}
  ]
}
